In patent publication US11540981B2, “Nanoemulsion formulation with improved stability and cell penetration” (BIOFRONTERA BIOSCIENCE GMBH, priority 2006, dated 2023):

Assays:
[1] = high concentrations required for clinical application, neutral to basic pH range; cited from earlier work
[2] = Phase II clinical study: pharmacokinetic assessment of systemic plasma and urine levels; settings: ALA-treated patients, compared with naturally occurring physiological values in the same individuals
[3] = 25° C.; cited from earlier work

| SMILES | stability in aqueous solutions [1] | plasma concentrations of ALA and its metabolite protoporphyrin IX [2] | urine concentrations of ALA and its metabolite protoporphyrin IX [2] | viscosity [3] [cp] |
| --- | --- | --- | --- | --- |
| NCC(=O)CCC(=O)O [ALA, 5-aminolevulinic acid] | unstable | not increased | not increased | – |
| CCO [ethanol] | – | – | – | 1.10 |
| CC(C)O [isopropanol] | – | – | – | 2.32 |
